Measured values from ChEMBL document CHEMBL3885861, “Open TG-GATES”.

Species: Rattus norvegicus
Test: Open TG-GATES - Regimen: Single
Format: toxicity, organism-based, Sprague-Dawley
Design: regimen Single, gender Male, age 6 weeks
Settings: in vivo, po, 0 mg/kg, route gavage, dose level Control; for APTT / Bas / Eos / Fbg / Hb / Ht / Lym / MCH / MCHC / MCV / Mono / Neu / PT / Plat / RBC / Ret / WBC: tissue Blood; for KIDNEY_L / KIDNEY_R / KIDNEY_TOTAL: tissue Kidney; for LIVER: tissue Liver; for A/G / ALP / ALT / AST / BUN / CRE / Ca / Cl / DBIL / GLC / IP / K / LDH / Na / PL / RALB / TBIL / TC / TG / TP / gamma-GTP: tissue Plasma

CCOC(=O)C(C)(C)Oc1ccc(Cl)cc1 [CLOFIBRATE]
TERMINAL_BW (3 h): 228.9 g | APTT (3 h): 18.8 s | Bas (3 h): 0% | Eos (3 h): 0.8% | Fbg (3 h): 234.6 mg/dL | Hb (3 h): 13.3 g/dL | Ht (3 h): 38.4% | Lym (3 h): 81.8% | MCH (3 h): 21.5 pg | MCHC (3 h): 34.9% | MCV (3 h): 61.6 fL | Mono (3 h): 2.4% | Neu (3 h): 14.4% | PT (3 h): 12.2 s | Plat (3 h): 137.2 x10_4/uL | RBC (3 h): 623.6 x10_4/ul | Ret (3 h): 7.6% | WBC (3 h): 86.9 x10_2/uL | KIDNEY_L (3 h): 0.9 g | KIDNEY_R (3 h): 0.9 g | KIDNEY_TOTAL (3 h): 1.8 g | LIVER (3 h): 10.8 g | A/G (3 h): 1.6 | ALP (3 h): 1250.4 IU/L | ALT (3 h): 37.6 IU/L | AST (3 h): 75.6 IU/L | BUN (3 h): 11.6 mg/dL | CRE (3 h): 0.4 mg/dL | Ca (3 h): 11 mg/dL | Cl (3 h): 101.8 meq/L | DBIL (3 h): 0.4 mg/dL | GLC (3 h): 193.4 mg/dL | IP (3 h): 8.4 mg/dL | K (3 h): 3.8 meq/L | LDH (3 h): 218.8 IU/L | Na (3 h): 139 meq/L | PL (3 h): 184 mg/dL | RALB (3 h): 3.6 g/dL | TBIL (3 h): 0.4 mg/dL | TC (3 h): 79.8 mg/dL | TG (3 h): 233.2 mg/dL | TP (3 h): 5.8 g/dL | gamma-GTP (3 h): 1 IU/L | TERMINAL_BW (6 h): 225.4 g | APTT (6 h): 18.9 s | Bas (6 h): 0% | Eos (6 h): 1% | Fbg (6 h): 229.6 mg/dL | Hb (6 h): 13.7 g/dL | Ht (6 h): 39.7% | Lym (6 h): 76.8% | MCH (6 h): 20.9 pg | MCHC (6 h): 34.5% | MCV (6 h): 60.7 fL | Mono (6 h): 3.4% | Neu (6 h): 18.4% | PT (6 h): 12.5 s | Plat (6 h): 131.5 x10_4/uL | RBC (6 h): 654.6 x10_4/ul | Ret (6 h): 7.7% | WBC (6 h): 91.8 x10_2/uL | KIDNEY_L (6 h): 1 g | KIDNEY_R (6 h): 1 g | KIDNEY_TOTAL (6 h): 2 g | LIVER (6 h): 10 g | A/G (6 h): 1.7 | ALP (6 h): 1002.8 IU/L | ALT (6 h): 31.2 IU/L | AST (6 h): 67.2 IU/L | BUN (6 h): 8.6 mg/dL | CRE (6 h): 0.3 mg/dL | Ca (6 h): 10.7 mg/dL | Cl (6 h): 103.2 meq/L | DBIL (6 h): 0.1 mg/dL | GLC (6 h): 192.2 mg/dL | IP (6 h): 8.8 mg/dL | K (6 h): 3.9 meq/L | LDH (6 h): 224 IU/L | Na (6 h): 140.4 meq/L | PL (6 h): 157.6 mg/dL | RALB (6 h): 3.5 g/dL | TBIL (6 h): 0.2 mg/dL | TC (6 h): 76.2 mg/dL | TG (6 h): 86 mg/dL | TP (6 h): 5.7 g/dL | gamma-GTP (6 h): 1 IU/L | TERMINAL_BW (9 h): 221.7 g | APTT (9 h): 18.1 s | Bas (9 h): 0% | Eos (9 h): 1% | Fbg (9 h): 234.4 mg/dL | Hb (9 h): 13.4 g/dL | Ht (9 h): 38.5% | Lym (9 h): 73.2% | MCH (9 h): 20.8 pg | MCHC (9 h): 34.9% | MCV (9 h): 59.7 fL | Mono (9 h): 2.6% | Neu (9 h): 22.8% | PT (9 h): 13 s | Plat (9 h): 137.3 x10_4/uL | RBC (9 h): 644.4 x10_4/ul | Ret (9 h): 7.1% | WBC (9 h): 78.9 x10_2/uL | KIDNEY_L (9 h): 0.9 g | KIDNEY_R (9 h): 1 g | KIDNEY_TOTAL (9 h): 1.9 g | LIVER (9 h): 9 g | A/G (9 h): 1.6 | ALP (9 h): 1006.6 IU/L | ALT (9 h): 27 IU/L | AST (9 h): 63.6 IU/L | BUN (9 h): 11.2 mg/dL | CRE (9 h): 0.4 mg/dL | Ca (9 h): 10.2 mg/dL | Cl (9 h): 103 meq/L | DBIL (9 h): 0.082 mg/dL | GLC (9 h): 204.6 mg/dL | IP (9 h): 10.2 mg/dL | K (9 h): 3.7 meq/L | LDH (9 h): 223.8 IU/L | Na (9 h): 141.2 meq/L | PL (9 h): 136.8 mg/dL | RALB (9 h): 3.3 g/dL | TBIL (9 h): 0.1 mg/dL | TC (9 h): 64.2 mg/dL | TG (9 h): 68.2 mg/dL | TP (9 h): 5.5 g/dL | gamma-GTP (9 h): 0.8 IU/L | TERMINAL_BW (24 h): 236.7 g | APTT (24 h): 18.6 s | Bas (24 h): 0% | Eos (24 h): 1% | Fbg (24 h): 230.2 mg/dL | Hb (24 h): 13.7 g/dL | Ht (24 h): 39.5% | Lym (24 h): 80.8% | MCH (24 h): 20.7 pg | MCHC (24 h): 34.5% | MCV (24 h): 60 fL | Mono (24 h): 2.4% | Neu (24 h): 15.8% | PT (24 h): 12.5 s | Plat (24 h): 127.3 x10_4/uL | RBC (24 h): 659.8 x10_4/ul | Ret (24 h): 6.3% | WBC (24 h): 75.3 x10_2/uL | KIDNEY_L (24 h): 1 g | KIDNEY_R (24 h): 1 g | KIDNEY_TOTAL (24 h): 2 g | LIVER (24 h): 10.9 g | A/G (24 h): 1.5 | ALP (24 h): 1006.2 IU/L | ALT (24 h): 34 IU/L | AST (24 h): 66.4 IU/L | BUN (24 h): 14.4 mg/dL | CRE (24 h): 0.4 mg/dL | Ca (24 h): 10.7 mg/dL | Cl (24 h): 102.2 meq/L | DBIL (24 h): 0.094 mg/dL | GLC (24 h): 191.2 mg/dL | IP (24 h): 7 mg/dL | K (24 h): 3.9 meq/L | LDH (24 h): 198.2 IU/L | Na (24 h): 140 meq/L | PL (24 h): 147.8 mg/dL | RALB (24 h): 3.3 g/dL | TBIL (24 h): 0.2 mg/dL | TC (24 h): 68.4 mg/dL | TG (24 h): 125.4 mg/dL | TP (24 h): 5.5 g/dL | gamma-GTP (24 h): 1 IU/L
